According to patent publication US7772241B2, “Variolin derivatives and their use as antitumor agents” (Pharma Mar S.A., priority 2001, dated 2010):
Read-outs that look alike come from different tables or passages of the source.

Legend:
[1] = tested on: HMEC1; assay: Inhibition of cells growth by colorimetric (SRB) assay, HMEC1; details: for GI50: Homo sapiens, HMEC-1, 48 h, read-out: GI50 H-MEC-1, SRB assay, 48 hours exposure; for TGI H-MEC-1: SRB assay, 48 hours exposure, in M (unit assumed)
[2] = as above; details: human, HMEC1 cells, LC50 H-MEC-1, SRB assay, 48 hours exposure
[3] = tested on: HT-29; assay: Inhibition of cells growth by colorimetric (SRB) assay, HT-29; details: for CC50: read-out: LC50 HT-29, SRB assay, 48 hours exposure
Outline: (§1)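 Human tumour cells seeded at 5×10^3/well in RPMI 1640 10% FBS, attached 18 h, then exposed 48 h to samples at 10 to 10^−8 μg/ml in DMSO/EtOH/PBS (0.5:0.5:99). Growth read by SRB staining after TCA fixation, OD 490 nm, triplicate wells; GI, TGI and LC derived.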

[4] = tested on: A-549; assay: Inhibition of cells growth by colorimetric (SRB) assay, A-549
Outline: as §1

[5] = tested on: K-562; assay: Inhibition of cells growth by colorimetric (SRB) assay, K-562; details: for GI50 / CC50: Homo sapiens, K562, 48 h; for GI50: read-out: GI50 K-562, SRB assay, 48 hours exposure; for CC50: read-out: LC50 K-562, SRB assay, 48 hours exposure; for TGI K-562: SRB assay, 48 hours exposure
Outline: as §1

[6] = tested on: LoVo-Dox; assay: Inhibition of cells growth by colorimetric (SRB) assay, LoVo-Dox
Outline: as §1

[7] = tested on: IGROV-1; assay: Inhibition of cells growth by colorimetric (SRB) assay, IGROV-1; details: for GI50 / CC50: Homo sapiens, IGROV-1, 48 h; for GI50: read-out: GI50 IGROV, SRB assay, 48 hours exposure; for CC50: read-out: LC50 IGROV, SRB assay, 48 hours exposure; for TGI IGROV: SRB assay, 48 hours exposure
Outline: as §1

[8] = tested on: DU-145; assay: Inhibition of cells growth by colorimetric (SRB) assay, DU-145; details: for GI50: read-out: GI50 DU-145, SRB assay, 48 hours exposure
Outline: as §1

[9] = tested on: LoVo; assay: Inhibition of cells growth by colorimetric (SRB) assay, LoVo
Outline: as §1

[10] = tested on: LNCaP; assay: Inhibition of cells growth by colorimetric (SRB) assay, LNCaP; details: for GI50 / CC50: Homo sapiens, LNCaP, 48 h; for GI50: read-out: GI50 LN-caP, SRB assay, 48 hours exposure; for CC50: read-out: LC50 LN-caP, SRB assay, 48 hours exposure; for TGI LN-caP: SRB assay, 48 hours exposure
Outline: as §1

[11] = tested on: SK-MEL-28; assay: Inhibition of cells growth by colorimetric (SRB) assay, SK-MEL-28; details: for GI50: read-out: GI50 MEL-28, SRB assay, 48 hours exposure
Outline: as §1

[12] = tested on: IGROV-ET; assay: Inhibition of cells growth by colorimetric (SRB) assay, IGROV-ET; details: for GI50 / CC50: Homo sapiens, 48 h; for GI50: read-out: GI50 IGROV-ET, SRB assay, 48 hours exposure; for CC50: read-out: LC50 IGROV-ET, SRB assay, 48 hours exposure; for TGI IGROV-ET: SRB assay, 48 hours exposure
Outline: as §1

[13] = tested on: PANC-1; assay: Inhibition of cells growth by colorimetric (SRB) assay, PANC-1; details: for GI50: read-out: GI50 PANC-1, SRB assay, 48 hours exposure
Outline: as §1

[14] = tested on: SK-BR-3; assay: Inhibition of cells growth by colorimetric (SRB) assay, SK-BR-3
Outline: as §1

[15] = Homo sapiens, HT-29, 48 h, read-out: GI50 HT-29, SRB assay, 48 hours exposure
[16] = Homo sapiens, A549, 48 h, read-out: GI50 A-549, SRB assay, 48 hours exposure
[17] = Homo sapiens, A549, 48 h, read-out: LC50 A-549, SRB assay, 48 hours exposure

Compound	GI50 [1] [µM]	TGI H-MEC-1 [1]	CC50 at 48 h [2] [µM]	GI50 [3, 15] [µM]	CC50 ([3]; Homo sapiens, HT-29, 48 h) [µM]	TGI HT-29 ([3]; SRB assay, 48 hours exposure)	GI50 [4, 16] [µM]	CC50 [4, 17] [µM]	TGI A-549 ([4]; SRB assay, 48 hours exposure)	GI50 [5] [µM]	CC50 [5] [µM]	TGI K-562 [5]	GI50 [7] [nM]	CC50 [7] [µM]	TGI IGROV [7]	GI50 ([8]; Homo sapiens, DU-145, 48 h) [nM]	TGI DU-145 ([8]; SRB assay, 48 hours exposure)	GI50 [10] [nM]	CC50 [10] [µM]	TGI LN-caP [10]	also measured
CSc1nccc(-c2c3c(N)ccnc3n3c(N)nccc23)n1 [Compound 92]	0.782	3.09E−06	30.9	2.04	30.9	3.09E−05	1.76	24.4	6.03E−06												
COc1ccnc2c1c(-c1ccnc(N)n1)c1ccnc(N)n12 [Compound 114]	0.67	1.33E−06	2.65		32.5	3.25E−06			1.72E−06	1.7	16.2	2.98E−06	843	15.8	1.81E−06	732	1.75E−06	625	2.35	1.21E−06	GI50 ([6]; Homo sapiens, 48 h, read-out: GI50 LOVO-DOX, SRB assay, 48 hours exposure): 827 nM; CC50 ([6]; Homo sapiens, 48 h, read-out: LC50 LOVO-DOX, SRB assay, 48 hours exposure): 32.5 µM; TGI LOVO-DOX ([6]; SRB assay, 48 hours exposure): 2.41E−06; CC50 ([8]; read-out: LC50 DU-145, SRB assay, 48 hours exposure): 6.22 µM; GI50 ([9]; Homo sapiens, LoVo, 48 h, read-out: GI50 LOVO, SRB assay, 48 hours exposure): 540 nM; TGI LOVO ([9]; SRB assay, 48 hours exposure): 1.98E−06; CC50 ([9]; read-out: LC50 LOVO, SRB assay, 48 hours exposure): 10.3 µM; GI50 ([3]; read-out: GI50 HT-29, SRB assay, 48 hours exposure): 1.04 µM; GI50 ([4]; read-out: GI50 A-549, SRB assay, 48 hours exposure): 0.553 µM; CC50 ([4]; read-out: LC50 A-549, SRB assay, 48 hours exposure): 8.23 µM; GI50 ([11]; Homo sapiens, SK-MEL-28, 48 h): 605 nM; TGI MEL-28 ([11]; SRB assay, 48 hours exposure): 1.20E−06; CC50 ([11]; read-out: LC50 MEL-28, SRB assay, 48 hours exposure): 2.4 µM; GI50 [12]: 1.51 µM; CC50 [12]: 25.4 µM; TGI IGROV-ET [12]: 3.29E−06; GI50 ([13]; Homo sapiens, PANC-1, 48 h): 1.35 µM; CC50 ([13]; Homo sapiens, PANC-1, 48 h, read-out: LC50 PANC-1, SRB assay, 48 hours exposure): 32.5 µM; TGI PANC-1 ([13]; SRB assay, 48 hours exposure): 6.18E−06
CSc1nccc(-c2c3cc(Cl)cnc3n3c(SC)nccc23)n1 [Compound 47]	26.7	2.67E−05	26.7	20.4	26.7	2.67E−05	17.2	26.7	2.67E−05												
CSc1nccc(-c2c3cc(F)c(Cl)nc3n3c(SC)nccc23)n1 [Compound 48]	25.5	2.55E−05	25.5	25.5	25.5	2.55E−05	25.5	25.5	2.55E−05												
COc1nccc(-c2c3c(OC)ccnc3n3c(N)nccc23)n1 [Compound 109]	2.04	2.17E−05	31				5.49	31	2.33E−05	7.6	31	2.41E−05	3070	31	1.46E−05	1630	3.10E−05	1400	31	4.81E−06	CC50 ([8]; Homo sapiens, DU-145, 48 h, read-out: LC50 DU-145, SRB assay, 48 hours exposure): 31 µM; GI50 ([11]; Homo sapiens, SK-MEL-28, 48 h): 1260 nM; CC50 ([11]; Homo sapiens, SK-MEL-28, 48 h, read-out: LC50 MEL-28, SRB assay, 48 hours exposure): 22.4 µM; TGI MEL-28 ([11]; SRB assay, 48 hours exposure): 6.64E−06; GI50 [12]: 7.17 µM; CC50 [12]: 31 µM; TGI IGROV-ET [12]: 2.21E−05; GI50 ([14]; Homo sapiens, SK-BR-3, 48 h, read-out: GI50 SK-BR-3, SRB assay, 48 hours exposure): 1470 nM; CC50 ([14]; Homo sapiens, SK-BR-3, 48 h, read-out: LC50 SK-BR-3, SRB assay, 48 hours exposure): 31 µM; TGI SK-BR-3 ([14]; SRB assay, 48 hours exposure): 5.40E−06; GI50 ([13]; Homo sapiens, PANC-1, 48 h): 9.4 µM
CS(=O)(=O)c1nccc(-c2c3c(OCc4ccccc4)ccnc3n3c(N)nccc23)n1 [Compound 99]	8.2	2.24E−05	22.4	22.4	22.4	2.24E−05	22.4	22.4	2.24E−05												
